Target: T1, PKD2L1 (polycystic kidney disease 2-like 1 channel) (Mus musculus, UniProt A2A259)
T1 construct: mouse PKD2L1 in pCINeo/IRES-GFP, transiently expressed in HEK293T cells; no PKD1L3 co-expression mentioned; homotetramer (known biology)
T1 sequence (A2A259 1-760): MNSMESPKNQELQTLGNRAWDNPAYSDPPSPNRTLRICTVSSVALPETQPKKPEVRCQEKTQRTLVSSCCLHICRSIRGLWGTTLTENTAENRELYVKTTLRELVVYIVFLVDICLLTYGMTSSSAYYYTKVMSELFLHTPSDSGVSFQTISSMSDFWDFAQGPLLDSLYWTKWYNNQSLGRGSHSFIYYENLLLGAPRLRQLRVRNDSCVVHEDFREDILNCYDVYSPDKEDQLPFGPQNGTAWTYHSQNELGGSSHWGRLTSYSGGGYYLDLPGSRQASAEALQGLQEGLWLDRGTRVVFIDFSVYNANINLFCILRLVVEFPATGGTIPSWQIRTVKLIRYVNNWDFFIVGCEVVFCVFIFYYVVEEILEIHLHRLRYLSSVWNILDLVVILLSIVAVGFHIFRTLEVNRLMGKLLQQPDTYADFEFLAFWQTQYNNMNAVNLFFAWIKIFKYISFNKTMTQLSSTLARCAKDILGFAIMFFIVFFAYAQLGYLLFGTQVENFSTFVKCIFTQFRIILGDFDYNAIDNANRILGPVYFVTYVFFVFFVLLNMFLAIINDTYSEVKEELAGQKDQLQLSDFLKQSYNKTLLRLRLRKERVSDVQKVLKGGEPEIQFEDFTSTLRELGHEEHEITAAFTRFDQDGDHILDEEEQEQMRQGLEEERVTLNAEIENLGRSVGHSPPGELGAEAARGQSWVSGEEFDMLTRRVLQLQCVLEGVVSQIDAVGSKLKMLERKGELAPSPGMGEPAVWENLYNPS
Test: whole-cell patch clamp, channel activity (NPo) at -60 mV
Assay type: cell-based

- EC50: 33 µM
SMILES: C=C[C@H]1C[N@@]2CC[C@H]1C[C@H]2[C@H](O)c1ccnc2ccc(OC)cc12 [quinine]

— article PMC10017821, “Polycystic kidney disease 2-like 1 channel contributes to the bitter aftertaste perception of quinine” (Scientific Reports, 2023)
